The source of these data is paper PMC9646836, “Tetrahydroquinolinone derivatives exert antiproliferative effect on lung cancer cells through apoptosis induction” (Scientific Reports, 2022).

One may read the IC50 as the concentration at which inhibition is half-maximal.

The test system of data set [1] is HEK293. Description: MTT cell viability assay, HEK293 normal kidney cells. To be noted: for IC50: MTT, 72 h, normal kidney cells, mean ± SD, n = 3. Type of data set: cell-based, human. As for the experimental part:
(§1) All new tetrahydroquinoline derivatives were assessed for cytotoxicity on a broad panel of cancer and normal cell lines, using the MTT assay. The half-inhibitory growth inhibitory concentration (IC50) values of each compound were calculated after 72 h of treatment and presented in Table 1. […] In this assay, the IC50 value of 5-FU and ETP was recorded as a positive control.
(§2) Non-small cell lung cancer cells A549 (CCL-185), breast cancer cells MCF-7 ([…]), hepatocarcinoma cells HepG2 ([…]), normal kidney cells HEK293 (CRL-1573), and osteosarcoma cells U-2 OS (HTB-96) were obtained from the American Type Culture Collection. HCT-116 cell line was kindly provided by prof. Bert Vogelstein (Johns Hopkins University, Howard Hughes Medical Institute, USA). The obtained A549 and MCF-7 cells were cultured in RPMI-1640 medium, HepG2 cells in Minimum Essential Medium Eagle medium, HEK-293 cells in Dulbecco’s Modified Eagle’s medium, and U-2 OS and HCT-116 cells in McCoy’s […] medium. All culture media were supplemented with 10% fetal bovine serum, 2 mM L-glutamine, and antibiotics (penicillin 62.6 µg/ml and streptomycin 40 µg/ml; Sigma-Aldrich). Both cancer and normal cells were cultured at 37 °C under a humidified atmosphere with 5% or 10% CO2 and routinely screened for Mycoplasma contamination. All materials and reagents were obtained from Corning unless stated otherwise.
(§3) The cytotoxic effect of the synthesized compounds was assessed by the MTT (4,5-dimethylthiazol-2-yl-2,5-diphenyltetrazoliumbromide; Sigma-Aldrich) assay. Briefly, the cells were seeded into 96-well transparent flat-bottom plates and allowed to attach overnight. On the next day, the cells were treated with compounds in the range of 0–50 µM for 72 h. Dimethyl sulfoxide (DMSO; Merck) and 5-fluorouracil (5-FU; Sigma-Aldrich) were used as a reference. After exposure to the compounds, 20 μl of the MTT solution at a concentration of 4 mg/ml was added to each well, and the plates were incubated again for 2–3 h at 37 °C. Next, the media in the wells was replaced with 100 μl DMSO to solubilize the formazan crystals. The absorbance was measured at 540 nm using an ASYS UVM340 microplate reader (Biochrom Ltd.). The IC50 value of the compounds was calculated using GraphPad Prism 9 software, based on the curves plotted with survival as a function of dose, averaged from three independent experiments.
(Tetrazolium dyes change colour on reduction, which living cells bring about.)

Data set [2] concerns tested cell lines (HCT-116, A549, MCF-7, HepG2, Hela, HEK293). The experiment in a line: MTT assay, broad panel of cancer and normal cell lines. The class given is cell-based. The following applies: range of 0–50 µM, 72 h. The method, then:
as §1, §3

Data set [3] has as its system Hela. The experiment in a line: MTT cell viability assay, Hela. Type of data set: cell-based. To be noted: 72 h, mean ± SD, n = 3. As for the experimental part: as §1, §3
In data set [4] the test system is MCF-7. Description: MTT cell viability assay, MCF-7. The class given is cell-based, human. To be noted: mean ± SD, n = 3. As for the experimental part:
as §1, §2, §3

Data set [5] concerns A549. The experiment in a line: MTT cell viability assay, A549. Type of data set: cell-based, human. To be noted: mean ± SD, n = 3. The method, then:
as §1, §2, §3

Data set [6] concerns HepG2. The experiment in a line: MTT cell viability assay, HepG2. The class given is cell-based. The following applies: mean ± SD, n = 3. The method, then: as §1, §2, §3
Data set [7] concerns HCT-116. Description: MTT cell viability assay, HCT-116. Type of data set: cell-based, human. The following applies: mean ± SD, n = 3. As for the experimental part:
as §1, §2, §3

Turning to `O=c1[nH]c2c(c(-c3ccccc3)c1Cc1ccc(C(F)(F)F)cc1)CCCC2` [Compound 4e, 4-phenyl-3-[[4-(trifluoromethyl)phenyl]methyl]-5,6,7,8-tetrahydro-1H-quinolin-2-one], the half-maximal inhibitory concentration (IC50) in data set [1] (Homo sapiens, HEK293) was over 50 µM; in data set [3] (Homo sapiens, HeLa) it was over 50 µM; in data set [4] (Homo sapiens, MCF7, 72 h), over 50 µM; in data set [5] (Homo sapiens, A549, 72 h), over 50 µM; in data set [6] (Homo sapiens, HepG2, 72 h), over 50 µM; in data set [7] (Homo sapiens, HCT-116, 72 h), over 50 µM. Besides, in data set [2], the “effect on the tested cell lines” value is on record as “did not have any effect”.
`O=c1[nH]c2c(c(-c3ccccc3)c1Cc1cccc(-c3ccccc3)c1)CCCC2` [Compound 4d, 4-phenyl-3-[(3-phenylphenyl)methyl]-5,6,7,8-tetrahydro-1H-quinolin-2-one]: the IC50 is over 50 µM in data set [1] (Homo sapiens, HEK293); over 50 µM in data set [3] (Homo sapiens, HeLa); over 50 µM in data set [4] (Homo sapiens, MCF7, 72 h); over 50 µM in data set [5] (Homo sapiens, A549, 72 h); over 50 µM in data set [6] (Homo sapiens, HepG2, 72 h); over 50 µM in data set [7] (Homo sapiens, HCT-116, 72 h). In addition, in data set [2], the “effect on the tested cell lines” value was “did not have any effect”.
On to `O=c1[nH]cc(F)c(=O)[nH]1` [Compound 5-FU, 5-fluorouracil, reference compound], for which the IC50 in data set [1] (Homo sapiens, HEK293) stood at 16.8 ± 0.34 µM; in data set [3] (Homo sapiens, HeLa), 11.1 ± 1.53 µM; in data set [4] (Homo sapiens, MCF7, 72 h), 8.41 ± 0.98 µM; in data set [6] (Homo sapiens, HepG2, 72 h), 13.1 ± 0.32 µM; in data set [7] (Homo sapiens, HCT-116, 72 h), 5.78 ± 0.38 µM.
With `Clc1nc2c(c(-c3ccccc3)c1Cc1cccc3ccccc13)CCCC2` [Compound 5, 2-chloro-3-(1-naphthylmethyl)-4-phenyl-5,6,7,8-tetrahydroquinoline], the IC50 in data set [1] (Homo sapiens, HEK293) is over 50 µM; in data set [3] (Homo sapiens, HeLa), over 50 µM; in data set [4] (Homo sapiens, MCF7, 72 h), over 50 µM; in data set [5] (Homo sapiens, A549, 72 h) it was over 50 µM; in data set [6] (Homo sapiens, HepG2, 72 h), over 50 µM; in data set [7] (72 h) it was 13.1 ± 0.96 µM. For the same compound, the IC50 in data set [7] (Homo sapiens, HCT-116, 72 h) was about 13 µM.
As for `O=c1[nH]c2c(c(-c3ccccc3)c1Cc1ccc3ccccc3c1)CCCC2` [Compound 4b, 3-(2-naphthylmethyl)-4-phenyl-5,6,7,8-tetrahydro-1H-quinolin-2-one], the IC50 was over 50 µM in data set [1] (Homo sapiens, HEK293); over 50 µM in data set [3] (Homo sapiens, HeLa); over 50 µM in data set [4] (Homo sapiens, MCF7, 72 h); over 50 µM in data set [5] (Homo sapiens, A549, 72 h); over 50 µM in data set [6] (Homo sapiens, HepG2, 72 h); over 50 µM in data set [7] (Homo sapiens, HCT-116, 72 h). For the same compound, in data set [2], the “effect on the tested cell lines” value is reported as “did not have any effect”.
With `COc1cc([C@@H]2c3cc4c(cc3[C@@H](O[C@@H]3O[C@@H]5CO[C@@H](C)O[C@H]5[C@H](O)[C@H]3O)[C@H]3COC(=O)[C@H]23)OCO4)cc(OC)c1O` [ETP, reference compound], the IC50 in data set [1] was 1.91 ± 0.97 µM; in data set [3], 3.4 ± 0.51 µM; in data set [4] (72 h) it was 0.83 ± 0.15 µM; in data set [5] (72 h) it was 0.54 ± 0.21 µM; in data set [6] (72 h), 5.01 ± 0.22 µM; in data set [7] (72 h), 0.39 ± 0.01 µM.
On to `O=c1[nH]c2c(c(-c3ccccc3)c1Cc1ccc(-c3ccccc3)cc1)CCCC2` [Compound 4c, 4-phenyl-3-[(4-phenylphenyl)methyl]-5,6,7,8-tetrahydro-1H-quinolin-2-one], for which the IC50 was over 50 µM in data set [1] (Homo sapiens, HEK293); over 50 µM in data set [3] (Homo sapiens, HeLa); over 50 µM in data set [4] (Homo sapiens, MCF7, 72 h); over 50 µM in data set [5] (Homo sapiens, A549, 72 h); over 50 µM in data set [6] (Homo sapiens, HepG2, 72 h); over 50 µM in data set [7] (Homo sapiens, HCT-116, 72 h). Further, the “effect on the tested cell lines” value in data set [2] was “did not have any effect”.
Take `COc1nc2c(c(-c3ccccc3)c1Cc1cccc3ccccc13)CCCC2` [Compound 6, 2-methoxy-3-(1-naphthylmethyl)-4-phenyl-5,6,7,8-tetrahydroquinoline]: the IC50 in data set [1] (Homo sapiens, HEK293) is over 50 µM; in data set [3] (Homo sapiens, HeLa) it was 50 µM; in data set [4] (Homo sapiens, MCF7, 72 h) it was over 50 µM; in data set [5] (Homo sapiens, A549, 72 h) it was 40.2 ± 0.94 µM; in data set [6] (Homo sapiens, HepG2, 72 h), over 50 µM; in data set [7] (72 h) it was 15.6 ± 1.29 µM. Further, the concentration for half-maximal inhibition (IC50) in data set [7] (Homo sapiens, HCT-116, 72 h) was about 13 µM. In addition, in data set [1] (tested concentrations, compared to A549 and HCT-116), the “suppressive effect on human normal HEK293 kidney cells” value was “almost no suppressive effect”.
